As usually defined, the IC50 is the midpoint of a concentration-inhibition curve.

Read-outs that look alike come from different tables or passages of the source.

Data on three compounds can be found in PMC9968170 (Pharmaceutics, 2023).

For one data set, the system named is Bcrp. Also noted: method as in PMID 31868552. As to conditions: rats, cited from earlier work.
Another data set relates to human Bcrp. As to conditions: cited from earlier work.
The subject of another data set is OAT3. Also noted: method as in PMID 16489126, PMID 26700956, PMID 19282394. The settings on record: human OAT3; cited from earlier work.
Data set [1] can be described thus: PK of NOV (oral, given with FUR) in rats. The data set is classed as in vivo, Sprague-Dawley rats. The settings on record: NOV 20 mg/kg PO; for CL renal: Sprague-Dawley, rat, urine and whole blood, read-out: NOV renal clearance (CLR) (converted). Here is the method: The rats were housed 2–3 per cage in a specific-pathogen-free facility with controlled light (14/10 h, light/dark cycle), temperature (20–26 °C), and humidity (50 ± 20%).
For groups 2 and 4, the rats were fasted between 4 h prior to dosing and 2 h post-dose with free access to water. […] The blood samples (25 µL) were collected in duplicate in 1 mL tubes and mixed with an equal volume of water containing heparin (30 IU/mL containing 0.05% formic acid) at pre-dose, 0.25, 0.5, 0.75, 1, 1.5, 2, 4, and 6 h.
Next, 300 µL of acetonitrile containing FUR-d5 (as internal standard; 300 ng/mL) was added to 50 µL of the calibration curve standards, QC samples, and rat blood samples to precipitate blood proteins. […] One μL of the sample was injected and LC separation was achieved using an Acquity UPLC HSS T3 column (100Å, 1.8 µm, 1 mm × 100 mm) and mobile phase (A: water with 0.1% formic acid and B: acetonitrile with 0.1% formic acid; 50 μL/min flow) with a gradient program: 0.0–1.5 min (5% B), 1.5–3.5 min (5–70% B), 3.5–5 min (70–90% B), 5–7.5 min (90% B), and 7.5–7.6 min (90–5% B), followed by 5% B until 8.5 min. […] The cone voltage (CV) was 25 V.
Similarly, 25 µL of urine sample (diluted 10-fold with water containing 0.1% formic acid) was mixed with 75 µL of acetonitrile containing 100 ng/mL of FUR-d5.
(1) CLR=Ae 0−6 h/AUC0−6 h where, Ae is the cumulative amount of drug excreted unchanged in the urine between 0 to 6 h.

A further data set concerns OAT1. Further details: method as in PMID 16489126, PMID 26700956, PMID 19282394. The settings on record: human OAT1; cited from earlier work.
The conditions of data set [2]: FUR alone 5 mg/kg PO.
For data set [3] the following is noted: cited from earlier work.

With `O=C(O)c1cc(/N=N/c2ccc(S(=O)(=O)Nc3ccccn3)cc2)ccc1O` [sulfasalazine], the “Effect of NOV on systemic clearance of sulfasalazine” value in the data set with Bcrp (intravenous dosing) was “not influenced”. Further, in the data set on Bcrp (oral administration), the “Increase of sulfasalazine AUC with NOV coadministration” value was 3.2 fold and the “Increase of sulfasalazine Cmax with NOV coadministration” value was 5.9 fold.

With `CO[C@@H]1[C@@H](OC(N)=O)[C@@H](O)[C@H](Oc2ccc3c(O)c(NC(=O)c4ccc(O)c(CC=C(C)C)c4)c(=O)oc3c2C)OC1(C)C` [NOV, Novobiocin], the concentration for half-maximal inhibition (IC50) was […] in the data set with human Bcrp, […] in the data set on OAT3 and […] in the data set on OAT1. Further, in data set [1], the “AUC and Cmax of NOV, male vs female rats” value is listed as “comparable”. The CL renal is […] in data set [1] (female rats) and […] in data set [1] (male rats). Besides, the “Food-effect on the PK of NOV” value in data set [1] (fed vs fasted state) is on record as “no food-effect”.

On to `NS(=O)(=O)c1cc(C(=O)O)c(NCc2ccco2)cc1Cl` [FUR, Furosemide], for which the “FUR CLR, male compared to female rats” value in data set [2] is 2 fold. Also, in data set [3], the “Fraction excreted unchanged in urine, fe” value is on record as “≈ 65%”.
